Patent US20100168125A1, “INDOLIZINES AND AZA-ANALOG DERIVATIVES THEREOF AS CNS ACTIVE COMPOUNDS” (priority 2007, published 2010)
Where two headings read alike, the source gives them in different places.

Legend:
mice [1] = test: auditory startle response (ASR); type: in vivo; parameters: unit not given here
Protocol: (§1) Auditory startle response and prepulse (weak auditory stimulus) inhibition were used as a tool for assessment of deficiencies in sensor-motor gating, such as those seen in schizophrenia.
(§2) Mice were placed in a PPI chamber for acclimation and then treated with different trials including null (no stimuli), startle (120 dB), startle plus prepulse (4, 8 and 12 dB over background noise) or prepulse alone (82 dB).
(§3) Data was analyzed by repeated measures analysis of variance (ANOVA) followed by post-hoc analysis when appropriate. An effect was considered significant if p<0.05.

mice [2] = test: prepulse inhibition (PPI); type: in vivo; conditions: mice
Protocol: as §1, §2, §3

5-HT2 receptor = target: T1, 5-HT2 receptor (Sus scrofa, UniProt P50129); test: radioligand binding, porcine cortical membranes, [^3H]ketanserin
T1 construct: membrane preparations from porcine cortical material; from tissue; host or cells: porcine cerebral cortex membranes

human D3 receptor = target: T2, human D3 receptor (Homo sapiens, UniProt P35462); test: radioligand binding with [^3H]spiperone, D3
T2 construct: expressed in transfected cells; host or cells: Chinese hamster ovary (CHO) cells, membranes
Procedure, shortened: (§4)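 Membranes from CHO cell lines expressing each human receptor subtype incubated with [^3H]spiperone. Test compounds spanned subnanomolar to micromolar concentrations in competition format.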

5-HT1A receptor = target: T3, 5-HT1A receptor (Sus scrofa, UniProt A0A4X1UTF5); test: radioligand binding, porcine cortical membranes, [^3H]8-OH-DPAT and [^3H]WAY 100635
T3 construct: membrane preparations from porcine cortical material; from tissue; host or cells: porcine cerebral cortex membranes
T3 sequence (A0A4X1UTF5 1-422): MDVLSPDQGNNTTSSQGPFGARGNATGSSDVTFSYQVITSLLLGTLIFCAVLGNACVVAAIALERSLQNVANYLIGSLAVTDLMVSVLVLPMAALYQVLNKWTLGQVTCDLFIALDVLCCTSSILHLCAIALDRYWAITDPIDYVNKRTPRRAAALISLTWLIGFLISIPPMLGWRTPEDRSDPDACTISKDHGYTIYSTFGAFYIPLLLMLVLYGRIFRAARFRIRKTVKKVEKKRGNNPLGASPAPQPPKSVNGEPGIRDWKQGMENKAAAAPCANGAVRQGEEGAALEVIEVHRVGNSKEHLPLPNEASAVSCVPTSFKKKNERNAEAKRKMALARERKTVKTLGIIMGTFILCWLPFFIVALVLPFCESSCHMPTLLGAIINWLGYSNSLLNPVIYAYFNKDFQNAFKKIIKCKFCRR

human D4.4 receptor = target: T4, human D4.4 receptor (Homo sapiens, UniProt P21917); test: radioligand binding with [^3H]spiperone, D4.4
T4 construct: expressed in transfected cells; host or cells: Chinese hamster ovary (CHO) cells, membranes
T4 sequence (P21917 1-419): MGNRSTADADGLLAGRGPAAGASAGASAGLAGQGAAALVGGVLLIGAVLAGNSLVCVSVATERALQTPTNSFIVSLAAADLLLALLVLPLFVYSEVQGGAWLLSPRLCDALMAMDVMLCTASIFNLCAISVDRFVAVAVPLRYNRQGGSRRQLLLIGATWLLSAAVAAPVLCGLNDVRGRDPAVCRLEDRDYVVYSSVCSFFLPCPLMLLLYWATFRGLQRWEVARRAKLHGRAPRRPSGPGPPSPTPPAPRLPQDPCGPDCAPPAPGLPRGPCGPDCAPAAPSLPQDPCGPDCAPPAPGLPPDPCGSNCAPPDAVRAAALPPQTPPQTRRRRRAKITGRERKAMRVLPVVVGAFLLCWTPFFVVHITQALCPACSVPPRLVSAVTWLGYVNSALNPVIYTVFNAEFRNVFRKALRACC
Procedure, shortened: as §4

human D2short receptor = target: T5, human D2short receptor (Homo sapiens, UniProt P14416); test: radioligand binding with [^3H]spiperone, D2short; conditions: read-out: Ki D2sh
T5 construct: expressed in transfected cells; host or cells: Chinese hamster ovary (CHO) cells, membranes
Procedure, shortened: as §4

[3] = target: dopamine D2short receptor (Homo sapiens, UniProt P14416); test: [^35S]GTPγS-incorporation assay, intrinsic activity
human D2long receptor = target: T6, human D2long receptor (Homo sapiens, UniProt P14416); test: radioligand binding with [^3H]spiperone, D2long; conditions: read-out: Ki D2lo
T6 construct: expressed in transfected cells; host or cells: Chinese hamster ovary (CHO) cells, membranes
Procedure, shortened: as §4

[4] = porcine cortical membranes, [^3H]ketanserin
[5] = [^3H]spiperone, CHO membranes, mean of 2 to 4 experiments
[6] = read-out: D2short: [^35S]GTPγS intrinsic activity, % activity of quinpirol
[7] = ether alkylene linker compounds

T6 sequence (P14416 whole entry): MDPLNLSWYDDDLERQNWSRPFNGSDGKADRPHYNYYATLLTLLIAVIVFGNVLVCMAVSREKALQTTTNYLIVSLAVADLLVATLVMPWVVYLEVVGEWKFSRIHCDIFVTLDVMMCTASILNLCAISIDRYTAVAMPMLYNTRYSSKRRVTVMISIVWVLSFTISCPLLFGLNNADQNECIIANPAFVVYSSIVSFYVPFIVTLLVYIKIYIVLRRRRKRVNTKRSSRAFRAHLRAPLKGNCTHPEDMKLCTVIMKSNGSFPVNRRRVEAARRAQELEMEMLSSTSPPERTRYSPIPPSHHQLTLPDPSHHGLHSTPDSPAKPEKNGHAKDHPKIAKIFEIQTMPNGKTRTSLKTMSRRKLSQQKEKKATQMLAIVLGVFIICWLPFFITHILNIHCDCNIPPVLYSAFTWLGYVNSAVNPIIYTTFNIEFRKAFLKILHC
Chain of dopamine D2short receptor (P14416 1-414 isoform P14416-2): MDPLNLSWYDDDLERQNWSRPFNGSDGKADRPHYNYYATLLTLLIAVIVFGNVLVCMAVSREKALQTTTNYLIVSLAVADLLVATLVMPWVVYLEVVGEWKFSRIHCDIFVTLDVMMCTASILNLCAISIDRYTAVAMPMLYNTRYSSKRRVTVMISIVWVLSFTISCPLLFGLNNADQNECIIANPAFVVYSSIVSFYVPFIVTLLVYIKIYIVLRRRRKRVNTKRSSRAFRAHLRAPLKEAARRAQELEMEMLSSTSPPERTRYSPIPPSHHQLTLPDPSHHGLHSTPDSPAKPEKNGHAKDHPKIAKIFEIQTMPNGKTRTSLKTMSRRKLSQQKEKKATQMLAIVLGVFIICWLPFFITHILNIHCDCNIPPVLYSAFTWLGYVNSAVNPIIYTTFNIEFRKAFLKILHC
T5 sequence (P14416 1-414 isoform P14416-2): as above
T1 sequence (P50129 whole entry): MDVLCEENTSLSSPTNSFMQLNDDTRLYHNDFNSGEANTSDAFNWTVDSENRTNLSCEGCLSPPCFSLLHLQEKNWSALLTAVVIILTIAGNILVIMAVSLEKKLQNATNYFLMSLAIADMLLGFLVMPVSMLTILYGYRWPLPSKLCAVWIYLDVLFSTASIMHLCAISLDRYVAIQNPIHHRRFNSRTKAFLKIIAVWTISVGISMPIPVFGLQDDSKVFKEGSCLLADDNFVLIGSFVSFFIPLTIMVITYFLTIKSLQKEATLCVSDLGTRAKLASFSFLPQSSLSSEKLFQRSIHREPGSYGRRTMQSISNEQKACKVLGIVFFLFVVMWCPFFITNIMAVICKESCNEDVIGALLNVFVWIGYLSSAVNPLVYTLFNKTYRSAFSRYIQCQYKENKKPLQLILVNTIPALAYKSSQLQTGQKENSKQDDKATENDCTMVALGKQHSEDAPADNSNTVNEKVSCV
T2 sequence (P35462 whole entry): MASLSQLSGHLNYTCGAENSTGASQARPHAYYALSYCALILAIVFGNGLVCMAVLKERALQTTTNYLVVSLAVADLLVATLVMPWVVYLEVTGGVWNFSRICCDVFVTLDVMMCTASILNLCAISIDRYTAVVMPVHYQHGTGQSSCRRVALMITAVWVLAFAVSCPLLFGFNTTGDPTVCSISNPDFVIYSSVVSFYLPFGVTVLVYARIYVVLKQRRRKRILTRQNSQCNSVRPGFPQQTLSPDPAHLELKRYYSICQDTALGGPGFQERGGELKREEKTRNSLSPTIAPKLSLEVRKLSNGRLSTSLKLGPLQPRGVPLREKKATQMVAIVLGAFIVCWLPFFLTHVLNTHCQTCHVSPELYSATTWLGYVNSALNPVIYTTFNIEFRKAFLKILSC

| Structure (SMILES) | Ki (5-HT2 receptor; [4]) [µM] | melting point [°C] | Ki (human D3 receptor; [5]) [µM] | Ki (5-HT1A receptor; porcine cortical membranes) [µM] | Ki (human D4.4 receptor; [5]) [µM] | Ki (human D2short receptor; [5]) [µM] | Ki (human D2long receptor; [5]) [µM] | Emax [3, 6] [%] | also measured |
| --- | --- | --- | --- | --- | --- | --- | --- | --- | --- |
| O=C1CCc2ccc(OCCCCN3CCN(c4cccc(Cl)c4Cl)CC3)cc2N1 [aripiprazole, reference compound] |  |  |  |  |  |  |  |  | ASR (mice [1]; dose 1 mg/kg): 0; ASR (mice [1]; dose 3 mg/kg): 0; ASR (mice [1]; dose 10 mg/kg): 0; PPI (mice [2]; dose 1 mg/kg): 0; PPI (mice [2]; dose 10 mg/kg): 0 |
| O=Cc1cnn2cccc(OCCCCN3CCN(c4ccccc4Cl)CC3)c12 [Example E12, 4-[4-[4-(2-Chlorophenyl)piperazin-1-yl]butoxy]pyrazolo[1,5-a]pyridine-3-carbaldehyde] | 0.301 to 3 | 125 | 0.03 to 0.3 | < 0.03 | < 0.03 | < 0.03 | < 0.03 |  | Emax ([3]; read-out: D2short: [^35S]GTPγS intrinsic activity): 15 to 40% |
| Clc1ccc(N2CCN(CCCCOc3ccn4nccc4c3)CC2)cc1 [Example E19, 5-[4-[4-(4-Chlorophenyl)piperazin-1-yl]butoxy]pyrazolo[1,5-a]pyridine] | 0.301 to 3 | 125 | 0.03 to 0.3 | 0.03 to 0.3 | 0.03 to 0.3 | 0.03 to 0.3 | 0.03 to 0.3 | 15 to 40 |  |
| COc1ccccc1N1CCN(CCCCOc2ccn3ncc(I)c3c2)CC1 [Example E49, 3-Iodo-5-[4-[4-(2-methoxyphenyl)piperazin-1-yl]butoxy]pyrazolo[1,5-a]pyridine] | 0.301 to 3 | 61 | < 0.03 | < 0.03 | < 0.03 | < 0.03 | < 0.03 | < 15 |  |
| Clc1cccc(N2CCN(CCCCOc3ccn4ncc(Br)c4c3)CC2)c1Cl [Example E42, 3-Bromo-5-[4-[4-(2,3-dichlorophenyl)piperazin-1-yl]butoxy]pyrazolo[1,5-a]pyridine] | > 3 | 132 | < 0.03 | 0.301 to 3 | 0.301 to 3 | 0.03 to 0.3 | 0.03 to 0.3 | 15 to 40 |  |
| Clc1ccccc1N1CCN(CCCCOc2ccn3nccc3c2)CC1 [Example E17, 5-[4-[4-(2-Chlorophenyl)piperazin-1-yl]butoxy]pyrazolo[1,5-a]pyridine] | 0.301 to 3 | 163 | < 0.03 | 0.03 to 0.3 | 0.03 to 0.3 | < 0.03 | < 0.03 | 15 to 40 |  |
| COC(=O)c1cnn2ccc(OCCCCN3CCN(c4cccc(Cl)c4Cl)CC3)cc12 [Example E39, Methyl 5-[4-[4-(2,3-dichlorophenyl)piperazin-1-yl]butoxy]pyrazolo[1,5-a]pyridine-3-carboxylate] | 0.03 to 0.3 | 73 | < 0.03 | < 0.03 | < 0.03 | < 0.03 | < 0.03 | < 15 |  |
| O=Cc1cnn2cc(OCCCCN3CCN(c4ccccc4Cl)CC3)ccc12 [Example E56] | 0.301 to 3 | 71 | < 0.03 | < 0.03 | < 0.03 | < 0.03 | < 0.03 | 15 to 40 |  |
| O=Cc1cnn2cc(OCCCCN3CCN(c4cccc(Cl)c4Cl)CC3)ccc12 [Example E54, 6-[4-[4-(2,3-Dichlorophenyl)piperazin-1-yl]butoxy]pyrazolo[1,5-a]pyridine-3-carbaldehyde] | 0.03 to 0.3 | 99 | < 0.03 | < 0.03 | < 0.03 | < 0.03 | < 0.03 | < 15 |  |
| O=Cc1c(OCCCCN2CCN(c3cccc(Cl)c3Cl)CC2)nn2ccccc12 [Example E4, 2-[4-[4-(2,3-Dichlorophenyl)piperazin-1-yl]butoxy]pyrazolo[1,5-a]pyridine-3-carbaldehyde] | 0.03 to 0.3 | 100 | < 0.03 | < 0.03 | < 0.03 | < 0.03 | < 0.03 | 15 to 40 |  |
| Clc1ccccc1N1CCN(CCCCOc2ccn3ncc(Cl)c3c2)CC1 [Example E47, 3-Chloro-5-[4-[4-(2-chlorophenyl)piperazin-1-yl]butoxy]pyrazolo[1,5-a]pyridine] | 0.301 to 3 | 63 | < 0.03 | 0.03 to 0.3 | 0.03 to 0.3 | < 0.03 | 0.03 to 0.3 | < 15 |  |
| COc1ccccc1N1CCN(CCCCOc2ccn3ncc(Cl)c3c2)CC1 [Example E46, 3-Chloro-5-[4-[4-(2-methoxyphenyl)piperazin-1-yl]butoxy]pyrazolo[1,5-a]pyridine] | 0.301 to 3 | 68 | < 0.03 | < 0.03 | < 0.03 | < 0.03 | < 0.03 | < 15 | Ki (5-HT2 receptor; [7]): 0.91 µM; Ki (human D3 receptor; [7]): 0.0046 µM; ratio D2lo/D3 (human D3 receptor; ratio of Ki values): 1.5; Ki (5-HT1A receptor; [7]): 0.0088 µM; Ki (human D4.4 receptor; [7]): 0.0032 µM; Ki (human D2short receptor; [7]): 0.0043 µM; Ki (human D2long receptor; [7]): 0.0068 µM |
| N#Cc1cnn2ccc(OCCCCN3CCN(c4ccccc4Cl)CC3)cc12 [Example E38, 5-[4-[4-(2-Chlorophenyl)piperazin-1-yl]butoxy]pyrazolo[1,5-a]pyridine-3-carbonitrile] | 0.03 to 0.3 | 119 | < 0.03 | < 0.03 | < 0.03 | < 0.03 | < 0.03 | 15 to 40 |  |
| Oc1ccc(N2CCN(CCCCOc3ccn4nccc4c3)CC2)cc1 [Example E20, 5-[4-[4-(4-Hydroxyphenyl)piperazin-1-yl]butoxy]pyrazolo[1,5-a]pyridine] | 0.301 to 3 | 124 | 0.03 to 0.3 | > 3 | 0.301 to 3 | 0.03 to 0.3 | 0.03 to 0.3 | 15 to 40 |  |
